From patent US12649750B2, “Macrocyclic compounds, compositions, and methods of using thereof” (Sionna Therapeutics Inc., priority 2022, dated 2026)

Tests used:
CFTR = target: T1, CFTR (Homo sapiens, UniProt P13569, DEL508-508); experiment: TECC24 AUC fold over DMSO @10 μM, CFTR-mediated transepithelial chloride transport in CF-HBE cells; assay type: cell-based; conditions: test agent AUC divided by DMSO vehicle AUC, primary CF-HBE cells, ΔF508 homozygous donor, 48 hours incubation
T1 construct: Primary human bronchial epithelial cells from a ΔF508 homozygous CF donor; host or cells: primary human bronchial epithelial cells (CF-HBE), ΔF508 homozygous donor
T1 sequence (P13569 with tags, fused parts or gaps DEL508-508): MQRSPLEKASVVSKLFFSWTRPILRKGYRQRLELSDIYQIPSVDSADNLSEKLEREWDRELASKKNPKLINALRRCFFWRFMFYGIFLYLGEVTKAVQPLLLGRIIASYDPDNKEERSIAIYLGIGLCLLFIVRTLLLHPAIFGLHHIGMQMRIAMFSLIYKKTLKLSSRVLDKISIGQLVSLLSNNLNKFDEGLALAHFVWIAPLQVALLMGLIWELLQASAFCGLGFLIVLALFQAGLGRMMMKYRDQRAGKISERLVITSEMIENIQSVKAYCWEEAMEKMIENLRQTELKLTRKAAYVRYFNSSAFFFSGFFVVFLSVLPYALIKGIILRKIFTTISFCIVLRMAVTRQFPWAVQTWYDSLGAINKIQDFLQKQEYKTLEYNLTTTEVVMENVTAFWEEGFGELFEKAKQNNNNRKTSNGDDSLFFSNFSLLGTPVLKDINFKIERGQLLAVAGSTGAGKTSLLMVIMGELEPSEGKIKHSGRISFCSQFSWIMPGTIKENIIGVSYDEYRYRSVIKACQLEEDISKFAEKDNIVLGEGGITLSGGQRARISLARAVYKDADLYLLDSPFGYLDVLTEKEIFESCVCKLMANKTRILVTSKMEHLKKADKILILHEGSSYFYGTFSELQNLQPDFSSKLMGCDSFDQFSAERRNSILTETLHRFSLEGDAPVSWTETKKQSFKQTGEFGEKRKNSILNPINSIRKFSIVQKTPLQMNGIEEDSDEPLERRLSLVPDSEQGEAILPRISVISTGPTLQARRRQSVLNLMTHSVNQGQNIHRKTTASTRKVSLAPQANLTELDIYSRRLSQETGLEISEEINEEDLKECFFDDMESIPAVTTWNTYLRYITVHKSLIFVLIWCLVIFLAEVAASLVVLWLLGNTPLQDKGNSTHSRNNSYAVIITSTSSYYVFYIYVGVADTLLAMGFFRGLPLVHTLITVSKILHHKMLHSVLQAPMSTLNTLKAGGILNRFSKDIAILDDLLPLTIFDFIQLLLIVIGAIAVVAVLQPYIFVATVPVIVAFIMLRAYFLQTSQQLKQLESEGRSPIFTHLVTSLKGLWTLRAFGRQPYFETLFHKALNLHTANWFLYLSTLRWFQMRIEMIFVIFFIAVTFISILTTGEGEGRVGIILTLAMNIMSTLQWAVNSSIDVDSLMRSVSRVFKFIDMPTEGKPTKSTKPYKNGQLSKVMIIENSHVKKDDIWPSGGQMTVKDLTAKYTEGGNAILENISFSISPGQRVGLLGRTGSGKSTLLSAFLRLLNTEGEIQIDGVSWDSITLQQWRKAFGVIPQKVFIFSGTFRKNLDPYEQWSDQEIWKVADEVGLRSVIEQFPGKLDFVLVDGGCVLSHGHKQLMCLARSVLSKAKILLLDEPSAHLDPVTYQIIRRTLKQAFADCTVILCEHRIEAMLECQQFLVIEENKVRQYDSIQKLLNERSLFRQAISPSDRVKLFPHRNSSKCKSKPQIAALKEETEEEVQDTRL
How it was run: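 ΔF508-homozygous primary bronchial epithelial cells incubated 48 h at 36.5° C with compound (10 μM) in IL-13-containing medium, then TECC24 current-clamp recording in pH 7.4 Hepes saline with benzamil 10 μM, forskolin 10 μM, then CFTR inhibitor-172 20 μM. Equivalent Cl− current AUC between forskolin and inhibitor, expressed as fold over DMSO.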

NBD1 = target: T2, NBD1 (Homo sapiens, UniProt P13569); experiment: Aggregation analysis using differential static light scattering (DSLS), thermal stability of NBD1 (ΔTagg); assay type: binding; conditions: ΔTagg versus DMSO control, NBD1 0.2 mg/ml
T2 construct: Purified recombinant NBD1 was produced using previously described methods; made in house
T2 sequence (P13569 423-646 limits assumed): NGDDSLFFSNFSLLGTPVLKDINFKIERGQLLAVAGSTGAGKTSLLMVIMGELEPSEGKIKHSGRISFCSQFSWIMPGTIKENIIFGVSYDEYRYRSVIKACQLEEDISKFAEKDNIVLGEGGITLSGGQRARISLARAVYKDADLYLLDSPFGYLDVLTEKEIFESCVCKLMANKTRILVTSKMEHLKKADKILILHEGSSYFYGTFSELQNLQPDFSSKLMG
How it was run: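 NBD1 0.2 mg/ml, S200 buffer (50 mM Tris-HCl, 150 mM NaCl, 5 mM MgCl2, 2 mM ATP, 2 mM DTT, pH7.6) + 1% glycerol; cpd in DMSO; oil overlay. Ramp 25→70° C. at 1° C./min, DSLS images every 0.5° C. ΔTagg = Tagg (inflection) − mean DMSO Tagg.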

Compound | TECC (AUC, 10 μM) (CFTR) | DSLS 3D (100 μM ΔT) (NBD1)
C[C@@H](Cc1cccc([C@@]2(C)CCCC(C)(C)CS(=O)(=O)CCc3c(c(F)cc4[nH]ccc34)Cc3ccnc(c3)-c3nc2nn3C)c1)C(=O)O [Compound 233, (2S)-3-[3-[(6R)-22-Fluoro-3,6,10,10-tetramethyl-12,12-dioxo-12λ6-thia-3,4,19,28,30-pentazapentacyclo[23.3.1.12,5.015,23.016,20]triaconta-1(29),2(30),4,15,17,20,22,25,27-nonaen-6-yl]phenyl]-2-methyl-propanoic Acid] | B (a value between 12-20 is marked “B”) | C (a value greater than 10 °C and less than or equal to 25 °C is marked “C”)
C[C@H](Cc1cccc([C@@]2(C)CCCC(C)(C)CS(=O)(=O)CCc3c(c(F)cc4[nH]ccc34)Cc3ccnc(c3)-c3nc2nn3C)c1)C(=O)O [Compound 234, (2R)-3-[3-[(6R)-22-fluoro-3,6,10,10-tetramethyl-12,12-dioxo-12λ6-thia-3,4,19,28,30-pentazapentacyclo[23.3.1.12,5.015,23.016,20]triaconta-1(29),2(30),4,15,17,20,22,25,27-nonaen-6-yl]phenyl]-2-methyl-propanoic Acid] | B (a value between 12-20 is marked “B”) | C (a value greater than 10 °C and less than or equal to 25 °C is marked “C”)
Cn1nc2nc1-c1cc(ccn1)C(=O)c1c(F)cc3[nH]ccc3c1CCS(=O)(=O)CC(C)(C)CCC[C@]2(C)c1cccc(CCC(=O)O)c1 [Compound 238, 3-[3-[(6R)-22-fluoro-3,6,10,10-tetramethyl-12,12,24-trioxo-12λ6-thia-3,4,19,28,30-pentazapentacyclo[23.3.1.12,5.015,23.016,20]triaconta-1(29),2(30),4,15,17,20,22,25,27-nonaen-6-yl]phenyl]propanoic acid] | A (a TECC value less than 12 is marked “A”) | C (a value greater than 10 °C and less than or equal to 25 °C is marked “C”)
C[C@@H](Cc1cccc([C@@]2(C)CCCC(C)(C)CS(=O)(=O)CCc3c(c(F)cc4[nH]ccc34)Sc3ccc(F)c(c3)-c3nc2cs3)c1)C(=O)O [Compound 240, (2S)-3-[3-[(6R)-22,28-difluoro-6,10,10-trimethyl-12,12-dioxo-3,12λ6,24-trithia-19,30-diazapentacyclo[23.3.1.12,5.015,23.016,20]triaconta-1(29),2(30),4,15,17,20,22,25,27-nonaen-6-yl]phenyl]-2-methyl-propanoic Acid] | A (a TECC value less than 12 is marked “A”) | B (a value above 5 °C and less than or equal to 10 °C is marked “B”)
C[C@@H](Cc1cccc([C@@]2(C)CCCC(C)(C)CS(=O)(=O)CCc3c(c(F)cc4[nH]ccc34)Sc3ccc(F)c(c3)-c3nc2nn3C)c1)C(=O)O [Compound 242, (2S)-3-[3-[(6R)-22,28-difluoro-3,6,10,10-tetramethyl-12,12-dioxo-12λ6,24-dithia-3,4,19,30-tetrazapentacyclo[23.3.1.12,5.015,23.016,20]triaconta-1(29),2(30),4,15,17,20,22,25,27-nonaen-6-yl]phenyl]-2-methyl-propanoic Acid] | C (a value between 20 and 80 is marked “C”) | C (a value greater than 10 °C and less than or equal to 25 °C is marked “C”)
C[C@@H](Cc1cccc([C@@]2(C)CCCC(C)(C)CS(=O)(=O)CCc3c(c(F)cc4[nH]ccc34)Oc3cncc(c3)-c3nc2nn3C)c1)C(=O)O [Compound 244, (2S)-3-[3-[(6R)-22-fluoro-3,6,10,10-tetramethyl-12,12-dioxo-24-oxa-12λ6-thia-3,4,19,27,30-pentazapentacyclo[23.3.1.12,5.015,23.016,20]triaconta-1(29),2(30),4,15(23),16(20),17,21,25,27-nonaen-6-yl]phenyl]-2-methyl-propanoic Acid] | C (a value between 20 and 80 is marked “C”) | C (a value greater than 10 °C and less than or equal to 25 °C is marked “C”)
C[C@@H](Cc1cccc([C@@]2(C)CCCC(C)(C)CS(=O)(=O)CCc3c(c(F)c(F)c4[nH]ccc34)Oc3ccc(F)c(c3)-c3nc2nn3C)c1)C(=O)O [Compound 245, (2S)-2-methyl-3-[3-[(6R)-21,22,28-trifluoro-3,6,10,10-tetramethyl-12,12-dioxo-24-oxa-12λ6-thia-3,4,19,30-tetrazapentacyclo[23.3.1.12,5.015,23.016,20]triaconta-1(29),2(30),4,15,17,20,22,25,27-nonaen-6-yl]phenyl]propanoic Acid] | C (a value between 20 and 80 is marked “C”) | C (a value greater than 10 °C and less than or equal to 25 °C is marked “C”)
Cn1nc2nc1-c1cc(ccn1)C(=O)c1c(F)cc3[nH]ccc3c1CCS(=O)(=O)CC(C)(C)CCC[C@]2(C)c1cccc(CC(=O)O)c1 [Compound 247, 2-[3-[(6R)-22-fluoro-3,6,10,10-tetramethyl-12,12,24-trioxo-12λ6-thia-3,4,19,28,30-pentazapentacyclo[23.3.1.12,5.015,23.016,20]triaconta-1(29),2(30),4,15,17,20,22,25,27-nonaen-6-yl]phenyl]acetic Acid] | C (a value between 20 and 80 is marked “C”) | C (a value greater than 10 °C and less than or equal to 25 °C is marked “C”)
Cn1nc2nc1-c1cc(ccn1)Sc1c(F)cc3[nH]ccc3c1CCS(=O)(=O)CC(C)(C)CCC[C@]2(C)c1cccc(CC(=O)O)c1 [Compound 251, 2-[3-[(6R)-22-Fluoro-3,6,10,10-tetramethyl-12,12-dioxo-12λ6,24-dithia-3,4,19,28,30-pentazapentacyclo[23.3.1.12,5.015,23.016,20]triaconta-1(29),2(30),4,15,17,20,22,25,27-nonaen-6-yl]phenyl]acetic Acid] | B (a value between 12-20 is marked “B”) | C (a value greater than 10 °C and less than or equal to 25 °C is marked “C”)
Cn1nc2nc1-c1cncc(c1)Oc1c(F)cc3[nH]ccc3c1CCS(=O)(=O)CC(C)(C)CCC[C@]2(C)c1cccc(CCC(=O)O)c1 [Compound 252, 3-[3-[(6R)-22-Fluoro-3,6,10,10-tetramethyl-12,12-dioxo-24-oxa-12λ6-thia-3,4,19,27,30-pentazapentacyclo[23.3.1.12,5.015,23.016,20]triaconta-1(29),2(30),4,15(23),16(20),17,21,25,27-nonaen-6-yl]phenyl]propanoic Acid] | C (a value between 20 and 80 is marked “C”) | C (a value greater than 10 °C and less than or equal to 25 °C is marked “C”)
C[C@@H](Cc1cccc([C@@]2(C)CCCC(C)(C)CS(=O)(=O)CCc3c(c(F)cc4[nH]ccc34)Sc3ccnc(c3)-c3nc2nn3C)c1)C(=O)O [Compound 253, (2S)-3-[3-[(6R)-22-fluoro-3,6,10,10-tetramethyl-12,12-dioxo-12λ6,24-dithia-3,4,19,28,30-pentazapentacyclo[23.3.1.12,5.015,23.016,20]triaconta-1(29),2(30),4,15,17,20,22,25,27-nonaen-6-yl]phenyl]-2-methyl-propanoic Acid] | B (a value between 12-20 is marked “B”) | C (a value greater than 10 °C and less than or equal to 25 °C is marked “C”)
C[C@@H](Cc1cccc([C@@]2(C)CCCC(C)(C)CS(=O)(=O)CCc3c(c(F)cc4[nH]ccc34)Oc3cnnc(c3)-c3nc2nn3C)c1)C(=O)O [Compound 256, (2S)-3-[3-[(6R)-22-Fluoro-3,6,10,10-tetramethyl-12,12-dioxo-24-oxa-12λ6-thia-3,4,19,27,28,30-hexazapentacyclo[23.3.1.12,5.015,23.016,20]triaconta-1(29),2(30),4,15,17,20,22,25,27-nonaen-6-yl]phenyl]-2-methyl-propanoic Acid] | C (a value between 20 and 80 is marked “C”) | C (a value greater than 10 °C and less than or equal to 25 °C is marked “C”)
Cn1nc2nc1-c1cc(ccn1)Oc1c(F)c(F)c3[nH]ccc3c1CCS(=O)(=O)CC(C)(C)CCC[C@]2(C)c1cccc(CC(=O)O)c1 [Compound 257, 2-[3-[(6R)-21,22-difluoro-3,6,10,10-tetramethyl-12,12-dioxo-24-oxa-12λ6-thia-3,4,19,28,30-pentazapentacyclo[23.3.1.12,5.015,23.016,20]triaconta-1(29),2(30),4,15,17,20,22,25,27-nonaen-6-yl]phenyl]acetic Acid] | B (a value between 12-20 is marked “B”) | C (a value greater than 10 °C and less than or equal to 25 °C is marked “C”)
Cn1nc2nc1-c1cc(ccn1)Oc1c(F)c(F)c3[nH]ccc3c1CCS(=O)(=O)CC(C)(C)CCC[C@]2(C)c1cccc(CCO)c1 [Compound 258, 2-[3-[(6R)-21,22-Difluoro-3,6,10,10-tetramethyl-12,12-dioxo-24-oxa-12λ6-thia-3,4,19,28,30-pentazapentacyclo[23.3.1.12,5.015,23.016,20]triaconta-1(29),2(30),4,15,17,20,22,25,27-nonaen-6-yl]phenyl]ethanol] | C (a value between 20 and 80 is marked “C”) | C (a value greater than 10 °C and less than or equal to 25 °C is marked “C”)
